{"source": "paper PMC12236907", "about": "“A Natural Depsipeptide Antibiotic that Targets the E site of the Bacterial Ribosome” (Research Square, 2025)", "key": {"[1]": {"system": "bacteria with resistance mechanisms to other translation-inhibiting antibiotics", "conditions": "bacterial pathogens; unique site of action in the ribosome"}, "Klebsiella pneumoniae": {"system": "Klebsiella pneumoniae", "assay": "Antimicrobial activity, Klebsiella pneumoniae", "type": "cell-based"}, "[2]": {"system": "70S ribosome (50S subunit)", "assay": "Cryo-EM of MKM-stalled ribosome complexes", "type": "binding, E. coli", "conditions": "ermBL MKM-SRC, 50 μM MKM", "protocol": "MKM-ribosome complexes were generated by in vitro translation reactions in the PURExpress In vitro Protein Synthesis Kit (NEB) as described by the manufacturer. Complex formation reactions were carried out on ermBL toeprint mRNA template (Supplementary Table 7) in a 75 μl of reaction in presence of 50 μM MKM. The reaction was incubated for 15 min at 37 °C. The reaction volume was then split: 69 μl were used for complex generation and 6 μl were further analyzed by toeprinting. Ribosome complexes were isolated by centrifugation in 900 μl of sucrose gradient buffer (containing 40% sucrose, 50 mM HEPES-KOH, pH 7.4, 100 mM KOAc, 25 mM Mg(OAc)2 and 6 mM 2-mercaptoethanol) for 3 h at 4 °C with 80,000 g in a Optima Max-XP Tabletop Ultracentrifuge with a TLA 120.2 rotor. […]\nCryo-EM grids were prepared by applying 3.5 μl of MKM-70S complexes onto freshly glow-discharged Quantifoil R3.5/1 grids (copper, 300 mesh, with an additional 3 nm carbon layer; Product: C3-C19nCu30–01). […]\nMovies were captured at a nominal magnification of 105,000×, corresponding to a calibrated pixel size of 0.832 Å (0.416 Å in super-resolution mode, binned 2× via EPU). […] Each exposure lasted 1.95 seconds in nanoprobe mode, during which 35 frames were recorded at a dose rate of ~1.14 electrons per frame per Å^2, resulting in a total accumulated dose of approximately 40 electrons per Å^2 (~15 e^−/px/s over vacuum). […]"}, "ribosome": {"system": "ribosome", "assay": "Ribosome profiling (Ribo-seq)"}, "[3]": {"biological_target": "rabbit reticulocyte lysate", "assay": "Inhibition of protein synthesis in rabbit reticulocyte lysate programmed with luciferase mRNA", "type": "biochemical"}, "[4]": {"system": "E. coli S30 extract transcription-translation system", "assay": "Inhibition of protein synthesis in E. coli cell-free transcription-translation system", "type": "biochemical", "conditions": "E. coli S30 lysate, pBESTluc plasmid, 0.05 to 100 μM, 1 h at 37°C, luminescence; mean ±SD of three technical replicates", "protocol": "The impact of MKM-A and MKM-E on in vitro protein synthesis was evaluated using the E. coli S30 extract transcription-translation system (Promega) following the manufacturer’s protocol. The pBESTluc plasmid DNA was utilized as the template to produce firefly luciferase. MKM analogues were tested across a concentration range of 0.05 to 100 μM. The reactions were incubated for one hour at 37°C. Luminescence was then measured in opaque 96-well plates using a Synergy Microplate Reader (Biotek). The IC50 values, indicating the concentration at which MKMs inhibited protein synthesis by 50%, were determined using GraphPad Prism 10 software."}, "E. coli BW25113": {"system": "E. coli BW25113", "assay": "Bacterial cell morphology by scanning electron microscopy", "type": "cell-based", "conditions": "E. coli BW25113, 32 and 80 μg/ml, MOPS minimal medium, 1 h at 37°C", "protocol": "After treatment, the cells were centrifuged at 5,000×g for 5 min, then resuspended in a fixative solution (4% glutaraldehyde in PBS, pH 7.4) at 0.1× the original volume. The cells were fixed at room temperature for 1 h and stored overnight at 4 °C. The following day, 50 μl of the fixed cells were transferred onto coverslips coated with poly-L-lysine, dehydrated through a series of ethanol treatments, and dried using a critical point dryer. The samples were then examined with a scanning electron microscope (TESCAN VEGA-II LSU) equipped with an X-MAX 80mm^2 EDS detector, and images were captured using INCA software."}}, "note": "Entries after “also recorded” stand apart in the source; their conditions may differ. Where a SMILES comes first, the peptide text is derived from it. Bridges are numbered along the chain shown (N, C = ends). [ ]: non-standard residue; d: D form. dOrn = NCCC[C@@H](N)C(=O)O", "data": [{"compound": "C[C@@H](O)[C@@H]1NC(=O)[C@@H](CCCNC(=N)N)NC(=O)[C@@H](CCCNC(=N)N)NC(=O)[C@@H](CC(N)=O)NC(=O)[C@@H](NC(=O)[C@@H](Cc2ccccc2)NC(=O)[C@@H](CCCN)NC(=O)[C@H](N)CCCNC(=N)N)[C@@H](C)OC(=O)[C@H](Cc2c[nH]cn2)NC1=O", "note": "[MKM, manikomycin A] (H-[dR][dOrn][dF]T[dN][dR][dR]TH; ester 4-C)", "values": [{"measurement": "sensitivity to resistance mechanisms against other translation inhibitors", "setting": "[1]", "result": "insensitive to resistance mechanisms"}, {"measurement": "antimicrobial activity", "setting": "Klebsiella pneumoniae", "result": "selective antimicrobial activity"}, {"measurement": "second binding site", "setting": "[2]", "result": "at the back of the 50S subunit"}, {"measurement": "primary binding site", "setting": "[2]; 2.4 Å focused refinement on 50S", "result": "located within the E site of the 50S subunit"}, {"measurement": "metagene ribosome occupancy", "setting": "ribosome; E. coli BL21ΔtolC, 50 μg/ml (25×MIC), 2 min", "result": "increased ribosome occupancy at the early mRNA codons"}, {"measurement": "codon depletion at MKM-induced arrest sites", "setting": "ribosome; E. coli BL21ΔtolC, 50 μg/ml (25×MIC), 2 min, pLogo", "result": "exclusion of Thr at the sites of MKM-induced arrest"}, {"measurement": "codon enrichment at MKM-induced stalling sites", "setting": "ribosome; E. coli BL21ΔtolC, 50 μg/ml (25×MIC), 2 min, pLogo, sites with ≥5-fold higher occupancy", "result": "enrichment of Pro codons in the P and A sites"}, {"measurement": "context specificity of action (summary)", "setting": "ribosome; ribosome profiling and toeprinting, Pro, Leu, Thr codons", "result": "more efficiently inhibiting ribosomes translating Pro and Leu codons and exhibiting less effect on those translating Thr codons"}, {"measurement": "IC50 ratio rabbit reticulocyte lysate / bacterial system", "setting": "[3]; IC50 9.2 μM vs 0.6 μM in E. coli system", "result": "approximately 15 fold"}, {"measurement": "inhibition of eukaryotic / mammalian translation (in words)", "setting": "[3]; rabbit reticulocyte lysate (Fig. 2d)", "result": "poor inhibition; also recorded: very weak inhibitor"}, {"measurement": "IC50", "setting": "[3]; rabbit reticulocyte lysate, luciferase mRNA", "result": 9.2, "unit": "µM"}, {"measurement": "IC50 ratio to cycloheximide", "setting": "[3]; rabbit reticulocyte lysate, higher than cycloheximide", "result": 35, "unit": "fold"}, {"measurement": "IC50", "setting": "[4]", "result": 0.6, "unit": "µM"}, {"measurement": "bacterial cell morphology", "setting": "E. coli BW25113", "result": "no detectable changes in bacterial cell morphology"}]}]}
